Here are results for 1 compound from US20180282734A1, “METHODS AND COMPOSITIONS FOR THE TREATMENT OF HEAD AND NECK CANCER” (Children's Hospital Medical Center, priority 2015, published 2018).

For assay [1], the target named is T1, IRAK1 (Homo sapiens, UniProt P51617).
T1 construct: endogenous in cells; host or cells: UMSCC1 and UMSCC47
In words: Western blot for phospho-IRAK1 after IRAK-1/4 inhibitor treatment (time course). It is filed as cell-based. To be noted: UMSCC1 and UMSCC47 cells. The procedure:
Western blotting. Whole cell lysates were harvested using Laemmli buffer and a total of 20 μg of protein was analyzed as described previously. Membranes were probed with DEK (1:1000, BD Biosciences, San Jose, Calif., USA), IRAK1 (1:1000, Santa Cruz Biotechnology, Dallas, Tex., USA (sc-7883)), TRAF6 (1:1000, Santa Cruz (sc-7221)), phospho-IRAK1 (Thr209, 1:800, Assay Biotechnology Company (A1074), Sunnyvale, Calif., USA), phospho-p38 (1:500, Cell Signaling Technologies (4361)), p38 (1:1000, Cell Signaling Technologies (9212)), phospho-ERK1/2 (1:1000, Cell Signaling Technologies (4377)), ERK1/2 (1:1000, Cell Signaling Technologies (4695)), phospho-IKKa/r3 (1:500, Cell Signaling Technologies (2697)), IKKa (1:1000, Cell Signaling Technologies (2682)), phospho-hcBa (1:500, Cell Signaling Technologies (9246)), hcBa (1:1000, Cell Signaling Technologies (4812)), a-tubulin-HRP (1:10,000 Cell Signaling Technologies (9099)), actin (1:10,000 a gift from James Lessard), and GAPDH (1:1000, Cell Signaling Technologies (5174)).
IRAK1 inhibitor. […]
Cells and media were collected 72 hours later and prepared and analyzed as above. For the time-course experiment, cells were plated and inhibitor was added the following day, with protein collected at 24, 48, and 72 hours and analyzed by western blot for IRAK1 inhibition.
A general note: A western blot detects proteins with antibodies after separation by electrophoresis.

The test system of assay [2] is UMSCC1 cells. In words: Flow cytometry for cleaved caspase-3 after IRAK1 inhibitor. It is filed as cell-based, human. The following applies: 72 hours, vs DMSO. The procedure: Flow cytometry for Cleaved Caspase-3. Lentivirally transduced cells were plated at equal densities and collected 48 hours later. Cells were fixed and prepped following the BD FITC Active Caspase-3 Apoptosis kit protocol (BD Biosciences). […] Analysis was performed on a BD FacsCanto and data analyzed on FlowJo software (Tree Star, Ashland, Oreg., USA). Experiments were performed 3 times with standard error of the mean (SEM) represented. IRAK1 inhibitor. UMSCC1 cells were plated at equal densities and IRAK1 inhibitor (IRAK-1/4 inhibitor, 15409, Sigma-Aldrich, St. Louis, Mo., USA) added the same day for caspase-3 flow cytometry experiments. DMSO was added in equal volume for a control. Cells and media were collected 72 hours later and prepared and analyzed as above. For the time-course experiment, cells were plated and inhibitor was added the following day, with protein collected at 24, 48, and 72 hours and analyzed by western blot for IRAK1 inhibition.
On the technique in general: Flow cytometry measures light scatter and fluorescence of single cells or particles in a stream.

Assay [3] has as its system melanoma cells. To be noted: in vitro and in vivo; cited from earlier work.
Assay [4] has as its system MDS. To be noted: cited from earlier work.
The subject of assay [5] is IRAK1 and IRAK4. To be noted: cited from earlier work.

T1 sequence (P51617 whole entry): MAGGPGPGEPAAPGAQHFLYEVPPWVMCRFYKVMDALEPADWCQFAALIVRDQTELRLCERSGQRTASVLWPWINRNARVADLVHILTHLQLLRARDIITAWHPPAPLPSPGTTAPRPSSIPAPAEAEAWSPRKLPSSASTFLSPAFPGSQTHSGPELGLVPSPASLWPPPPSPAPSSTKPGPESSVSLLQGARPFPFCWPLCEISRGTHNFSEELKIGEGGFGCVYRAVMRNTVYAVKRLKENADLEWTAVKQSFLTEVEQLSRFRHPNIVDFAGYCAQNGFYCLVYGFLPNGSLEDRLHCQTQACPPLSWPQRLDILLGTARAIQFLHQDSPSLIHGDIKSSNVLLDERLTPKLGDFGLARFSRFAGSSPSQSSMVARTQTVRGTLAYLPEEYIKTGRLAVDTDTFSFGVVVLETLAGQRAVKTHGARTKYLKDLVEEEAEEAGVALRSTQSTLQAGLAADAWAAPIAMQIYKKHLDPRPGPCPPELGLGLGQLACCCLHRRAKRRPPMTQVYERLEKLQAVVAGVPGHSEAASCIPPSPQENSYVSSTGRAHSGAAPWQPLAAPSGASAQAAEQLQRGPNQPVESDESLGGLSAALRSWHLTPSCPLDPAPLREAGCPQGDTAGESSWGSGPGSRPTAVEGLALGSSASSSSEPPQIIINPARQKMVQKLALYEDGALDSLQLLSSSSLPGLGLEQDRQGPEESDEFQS

As to `O=C(Nc1nc2ccccc2n1CCN1CCOCC1)c1cccc([N+](=O)[O-])c1` [IRAK-1/4 inhibitor, N-(2-morpholinylethyl)-2-(3-nitrobenzoylamido)-benzimidazole], in assay [1] (1 μM or 10 μM final concentrations, indicated time-points, vs DMSO), the “IRAK1 activation (phosphorylation of IRAK1, western blot)” value is reported as “reduces IRAK1 activation”. Besides, the “activation of IRAK1 (phosphorylation of IRAK1, western blot)” value in assay [1] (10 μM, 24-72 hours post-treatment) is on record as “attenuated activation of IRAK1”. Moreover, the “apoptosis (cleaved caspase-3)” value in assay [2] is recorded as “Significantly increased apoptosis”; in assay [2] (listed as IRAK1-inhibitor), “increases apoptosis”. For the same compound, the “apoptosis in melanoma cells” value in assay [3] is “increase apoptosis”. The “signaling and cell viability in MDS” value in assay [4] was “inhibit signaling and cell viability”. For the same compound, in assay [5], the kinase selectivity result was “selective for IRAK1 and IRAK4 and shows little specificity for other kinases”.
